One series relates to tissue PDH activity. Briefly: Ex vivo PDH activation assay (liver and epididymal adipose tissue after oral administration). It is filed as in vivo, Sprague-Dawley rats. To be noted: 3 mg/kg, rat, mean ± standard deviation. The method, then: The action of test compound on tissue PDH activity was evaluated. NADH production was detected via p-iodonitrotetrazolium violet (INT)-coupled system to measure PDH activity.
Normal male Sprague-Dawley rats were randomly allocated to the vehicle group and the test compound groups. The vehicle (0.5% aqueous methylcellulose solution, 5 mL/kg) or the test compound was orally administered to the rats. At 5 or 20 hr after administration, the rats were anesthetized with an intraperitoneal injection of sodium pentobarbital (60 mg/kg), and liver slices and epididymal adipose tissues were collected.
To the liver slices were rapidly added 9 volumes of ice-cold homogenization buffer (0.25 mol/L sucrose, 5 mmol/L tris(hydroxymethyl)aminomethane hydrochloride (pH 7.5), 2 mmol/L EDTA), and the mixtures were homogenized using a Polytron homogenizer. The homogenates were centrifuged at 600×g, 4° C. for 10 min to obtain the supernatant. The supernatants (1 mL) were centrifuged at 16,000×g, 4° C. for 10 min to collect the precipitates. The precipitates were washed by resuspension in the homogenization buffer (1 mL) and centrifuged in the same manner. The precipitates were frozen with liquid nitrogen and stored at −80° C. as the liver mitochondrial fraction.
To the adipose tissues were rapidly added 3 volumes of an ice-cold homogenization buffer, and the mixtures were homogenized using a Polytron homogenizer. The homogenates were centrifuged at 600×g, 4° C. for 10 min to obtain the supernatant. The supernatants were centrifuged at 16,000×g, 4° C. for 10 min to collect the precipitates. The precipitates were washed by resuspension in the homogenization buffer (1 mL) and centrifuged in the same manner. The precipitates were frozen with liquid nitrogen and stored at −80° C. as the adipose tissue mitochondrial fraction.
The mitochondrial fractions were thawed and suspended with the sample buffer (0.25 mol/L sucrose, 20 mmol/L tris(hydroxymethyl)aminomethane hydrochloride (pH 7.5), 50 mmol/L potassium chloride, and 1 mL/L 4-(1,1,3,3-tetramethylbutyl)phenyl-polyethylene glycol (Triton X-100)). Active PDH activity (PDHa activity) and total PDH activity (PDHt activity) were measured to evaluate the PDH activity. For the measurement of the PDHt activity, equal amounts of the mitochondrial suspension and the activation buffer (0.25 mol/L sucrose, 20 mmol/L tris(hydroxymethyl)aminomethane hydrochloride (pH 7.5), 50 mmol/L potassium chloride, 1 mL/L Triton X-100, 4 mmol/L calcium chloride, 40 mmol/L magnesium chloride, 10 mmol/L sodium dichloroacetate) were mixed, and the mixtures were incubated at 37° C. for 10 min. Forty microliters of the mitochondrial suspensions diluted with a sample buffer were added to a 96-well microplate for activity measurement and blank measurement. Then 180 μL of the reaction mixture (0.056 mmol/L potassium phosphate buffer (pH 7.5), 5.6 mmol/L DL-carnitine, 2.8 mmol/L NAD, 0.22 mmol/L thiamin pyrophosphate, 0.11 mmol/L Coenzyme A, 1.1 mL/L Triton X-100, 1.1 mmol/L magnesium chloride, 1.1 g/L bovine serum albumin, 0.67 mmol/L INT, 7.2 μmol/L phenazine methosulfate, 28 mmol/L sodium oxamate) was added to each well, and then 20 μL of 50 mmol/L sodium pyruvate for activity measurement or water for blank measurement were added. The mixtures were incubated at room temperature under shading. The absorbances at 500-750 nm, which were attributable to reduction of INT, the final electron acceptor, were measured using a microplate reader over time and the changes in the absorbance were calculated. The PDH activity was calculated by subtraction of the change in absorbance of the blank well from that of the activity measurement well. The percentage of the PDHa activity to the PDHt activity was calculated and taken as an index of the PDH activation.

Series [1] is described as follows: Metabolic stability test in liver microsome (rat). It is filed as in vitro ADME.
Series [2] is described as follows: Metabolic stability test in liver microsome (human). It is filed as in vitro ADME. The note with it: 5 μM test compound. As to the method:
Human liver microsome (manufactured by Xenotech, H0620, final concentration (after dilution), 0.2 mg protein/mL) was suspended in 100 mM potassium phosphate buffer (pH 7.4, containing β-nicotinamide adenine dinucleotide phosphate: 1.3 mM, D-glucose-6-phosphate: 3.3 mM, magnesium chloride: 3.3 mM, glucose-6-phosphate dehydrogenase: 0.45 U/mL), and further mixed with a test compound dissolved in MeCN/DMSO (95/5) (final concentration 5 μM). The mixture was incubated at 37° C. for 10 min and 60 min, acetonitrile containing formic acid (final concentration 0.1%) was added, and the mixture was centrifuged. The test compound (unmodified) in the supernatant was measured by high performance liquid chromatography/mass spectrometry (LC/MS) (manufactured by Waters, LC: Acquity UPLC, MS:SQ Detector or TQ Detector). The residual ratio (%) was calculated from the obtained measurement value.
(In general: Microsomes from liver hold many membrane-bound enzymes, among them those of drug oxidation.)

Setting [3] is: adipose tissue, 5 hr after oral administration.
Where [4] appears, read: adipose tissue, 20 hr after oral administration.
The mark [5] stands for this setting: liver, 5 hr after oral administration.
[6] abbreviates: liver, 20 hr after oral administration.

Consider `C[C@H](O)COc1cc(-c2cnn(CC(C)(C)O)c2)c2c(c1)[C@@](O)(C(F)(F)F)c1ccccc1-2` [compound (1), (9R)-4-[1-(2-hydroxy-2-methylpropyl)-1H-pyrazol-4-yl]-2-((2S)-2-hydroxypropoxy)-9-(trifluoromethyl)-9H-fluoren-9-ol], for which the “PDHa activity (% PDHt activity)” value in the series on tissue PDH activity (setting [3]) is given as 64 ± 5 % PDHt activity; in the series with tissue PDH activity (setting [4]) it was 56 ± 6 % PDHt activity; in the series on tissue PDH activity (setting [5]), 60 ± 8 % PDHt activity; in the series with tissue PDH activity (setting [6]), 13 ± 2 % PDHt activity. The “stability in liver microsome (residual ratio %)” value (shortened to “stability … (residual ratio %)”) in series [1] (10 min) came to 102.0%; in series [1] (60 min) it was 95.4%; in series [2] (10 min) it was 102.1%; in series [2] (60 min), 87.8%.
Consider `CC(C)(O)COc1cc(-c2cnn(CC(C)(C)O)c2)c2c(c1)[C@@](O)(C(F)(F)F)c1ccccc1-2` [compound (2), (9R)-2-(2-hydroxy-2-methylpropoxy)-4-[1-(2-hydroxy-2-methylpropyl)-1H-pyrazol-4-yl]-9-(trifluoromethyl)-9H-fluoren-9-ol], for which the “PDHa activity (% PDHt activity)” value in the series on tissue PDH activity (setting [3]) is 58 ± 10 % PDHt activity; with tissue PDH activity (setting [4]), 36 ± 7 % PDHt activity; in the series with tissue PDH activity (setting [5]), 67 ± 9 % PDHt activity; with tissue PDH activity (setting [6]), 16 ± 9 % PDHt activity. Further, the “stability … (residual ratio %)” value in series [1] (10 min) is given as 95.1%; in series [1] (60 min) it was 93.6%; in series [2] (10 min), 94.9%; in series [2] (60 min), 87.9%.
As for `CC(C)(O)CCCOc1cc(-c2cnn(CC(C)(C)O)c2)c2c(c1)[C@@](O)(C(F)(F)F)c1ccccc1-2` [compound (4), (9R)-2-(4-hydroxy-4-methylpentyloxy)-4-[1-(2-hydroxy-2-methylpropyl)-1H-pyrazol-4-yl]-9-(trifluoromethyl)-9H-fluoren-9-ol], the entries for the “PDHa activity (% PDHt activity)” value in the series with tissue PDH activity (setting [3]) and in the series with tissue PDH activity (setting [5]) were 62 ± 13 % PDHt activity and 68 ± 11 % PDHt activity, respectively. Besides, the “stability … (residual ratio %)” value in series [1] (10 min) came to 98.9%; in series [1] (60 min), 93.5%; in series [2] (10 min) it was 98.8%; in series [2] (60 min) it was 78.9%.
As to `NC(=O)Cn1cc(-c2cc(OCCC34CC5CC(CC(O)(C5)C3)C4)cc3c2-c2ccccc2[C@]3(O)C(F)(F)F)cn1` [compound (A), 2-(4-{(9R)-9-Hydroxy-2-[2-(3-hydroxyadamantan-1-yl)ethoxy]-9-(trifluoromethyl)-9H-fluoren-4-yl}-1H-pyrazol-1-yl)acetamide, reference compound], the “PDHa activity (% PDHt activity)” value in the series on tissue PDH activity (setting [3]) is 32 ± 14 % PDHt activity; in the series on tissue PDH activity (setting [4]) it was 24 ± 7 % PDHt activity; in the series on tissue PDH activity (setting [5]), 35 ± 6 % PDHt activity; with tissue PDH activity (setting [6]) it was 16 ± 10 % PDHt activity. For the same molecule, the “stability … (residual ratio %)” value in series [1] (10 min) was determined as 24.8%; in series [1] (60 min) it was 0.0%; in series [2] (10 min), 34.8%; in series [2] (60 min), 0.0%.
Regarding `Cn1cc(-c2cc(OCC(C)(C)O)cc3c2-c2ccccc2[C@]3(O)C(F)(F)F)cn1` [compound (B), (9R)-2-(2-Hydroxy-2-methylpropoxy)-4-(1-methyl-1H-pyrazol-4-yl)-9-(trifluoromethyl)-9H-fluoren-9-ol, reference compound], the “PDHa activity (% PDHt activity)” value in the series on tissue PDH activity (setting [3]) was found to be 59 ± 5 % PDHt activity; in the series with tissue PDH activity (setting [4]) it was 30 ± 4 % PDHt activity; in the series with tissue PDH activity (setting [5]), 43 ± 7 % PDHt activity; in the series on tissue PDH activity (setting [6]), 10 ± 3 % PDHt activity. Further, the “stability … (residual ratio %)” value is 101.1% in series [1] (10 min), 92.1% in series [1] (60 min), 98.0% in series [2] (10 min) and 88.2% in series [2] (60 min).

Values taken from patent US20150025120A1, “PYRAZOLE-ALCOHOL COMPOUNDS AND PHARMACEUTICAL USE THEREOF” (JAPAN TOBACCO INC., priority 2013, published 2015).
